The record followed here is ChEMBL document CHEMBL1128187, “1 alpha,25-dihydroxyvitamin D3 analogs featuring aromatic and heteroaromatic rings: design, synthesis, and preliminary biological testing” (1995).

The structures appear in SMILES notation.

What all share (assay type): functional
Test [1] is filed under the species Rattus norvegicus. Briefly: Patch clamp determination of calcium current in rat Osteosarcoma cells at 0.5 nM. In general terms: Patch clamp records ionic current or voltage across a cell membrane.
For test [2], the species on record is Rattus norvegicus. As to the kind of experiment: Patch clamp determination of calcium current in rat Osteosarcoma cells at 5.0 nM.
The species entered for test [3] is Rattus norvegicus. As to the kind of experiment: Patch clamp determination of calcium current in rat Osteosarcoma cells at 50.0 nM.

Take `C[C@H](CCCC(C)(C)O)[C@H]1CC[C@H]2C(c3ccc(CO)c(CO)c3)=CCC[C@]12C`: the “Ca2+ current” value was -0.08 mV in the test filed under Rattus norvegicus [1], 1.45 mV in the test filed under Rattus norvegicus [2] and 7.03 mV in the test filed under Rattus norvegicus [3].

As for `C[C@@H](COCCCC(C)(C)O)[C@H]1CC[C@H]2C(c3ccc(CO)c(CO)c3)=CCC[C@]12C`, the “Ca2+ current” value was 0.02 mV in the test listed under Rattus norvegicus [1], 0.15 mV in the test listed under Rattus norvegicus [2] and 0.63 mV in the test filed under Rattus norvegicus [3].

Turning to `C=C1/C(=C\C=C2/CCC[C@]3(C)[C@@H]([C@H](C)CCCC(C)(C)O)CC[C@@H]23)C[C@@H](O)C[C@@H]1O` [CALCITRIOL], the entries for the “Ca2+ current” value in the test listed under Rattus norvegicus [1], in the test listed under Rattus norvegicus [2] and in the test filed under Rattus norvegicus [3] were 5.73 mV, 9.79 mV and 10.2 mV, respectively.
